Tested on: primary rat mixed cortical cells
Assay: In vitro myelination assay (MBP positive myelin strands, fold myelin pixels above background)
Format: cell-based
Settings: Rattus norvegicus, relative to baseline of no added compound, read-out: Fold myelin pixels above background; for fold induction at 1 µM: 1.0 μM compound; for fold induction at 10 µM: 10.0 μM compound
In short: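 P1 rat cortical cells (neurons, OPCs, oligodendrocytes, astrocytes, microglia) were cultured 14 days at 37 °C with compound, with half-medium changes containing 1× compound on days 6 and 10. Fixed cells were immunostained for MBP and imaged at 10×. Total MBP myelin pixels per well were expressed as fold above no-compound baseline at 1.0 μM and 10.0 μM.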

SMILES | fold induction at 1 µM | fold induction at 10 µM
CCc1cc(Nc2ncn(-c3ccc(C)c(Cl)c3)n2)cc(N2CCN(C3COC3)CC2)c1 [Compound 715, 1-(3-chloro-4-methyl-phenyl)-N-[3-ethyl-5-[4-(oxetan-3-yl)piperazin-1-yl]phenyl]-1,2,4-triazol-3-amine] | 10 to 100 | 1 to 10
CC1(N2CCN(c3cc(C(F)F)cc(Nc4ncn(-c5cc(F)cc(F)c5)n4)n3)CC2)COC1 [Compound 716, 4-(difluoromethyl)-N-[1-(3,5-difluorophenyl)-1,2,4-triazol-3-yl]-6-[4-(3-methyloxetan-3-yl)piperazin-1-yl]pyridin-2-amine] | 1 to 10 | 100 to 1000
Cc1cc(Nc2ncn(-c3cc(F)cc(F)c3)n2)cc(N2CC(N3CC4CCC(C3)O4)C2)c1 [Compound 717, 1-(3,5-difluorophenyl)-N-[3-methyl-5-[3-(8-oxa-3-azabicyclo[3.2.1]octan-3-yl)azetidin-1-yl]phenyl]-1,2,4-triazol-3-amine] | 1 to 10 | 10 to 100
FC(F)c1cccc(-n2cnc(Nc3cc(C(F)F)cc(N4CCN(C5COC5)CC4)n3)n2)c1 [Compound 718, 4-(difluoromethyl)-N-[1-[3-(difluoromethyl)phenyl]-1,2,4-triazol-3-yl]-6-[4-(oxetan-3-yl)piperazin-1-yl]pyridin-2-amine] | 10 to 100 | 100 to 1000
FC(F)c1cc(Nc2ncn(-c3cccc(C(F)(F)F)c3)n2)nc(N2CC(N3CCOCC3)C2)c1 [Compound 719, 4-(difluoromethyl)-6-(3-morpholinoazetidin-1-yl)-N-[1-[3-(trifluoromethyl)phenyl]-1,2,4-triazol-3-yl]pyridin-2-amine] | 1 to 10 | ≤ 1
Cc1cc(Nc2ncn(-c3ccc(F)c(F)c3)n2)cc(N2CC(N3CCOCC3)C2)c1 [Compound 720, 1-(3,4-difluorophenyl)-N-[3-methyl-5-(3-morpholinoazetidin-1-yl)phenyl]-1,2,4-triazol-3-amine] | 1 to 10 | 10 to 100
Cc1cc(Nc2ncn(-c3cccc(F)c3)n2)cc(N2CC(N3CCOCC3)C2)c1 [Compound 721, 1-(3-fluorophenyl)-N-[3-methyl-5-(3-morpholinoazetidin-1-yl)phenyl]-1,2,4-triazol-3-amine] | 10 to 100 | ≤ 1
Cc1cc(Nc2ncn(-c3cc(F)cc(F)c3)n2)cc(N2C3CCC2COC3)c1 [Compound 722, 1-(3,5-difluorophenyl)-N-[3-methyl-5-(3-oxa-8-azabicyclo[3.2.1]octan-8-yl)phenyl]-1,2,4-triazol-3-amine] | 10 to 100 | 10 to 100
Fc1cc(F)cc(-n2cnc(Nc3cc(Cl)cc(N4CC(N5CCOCC5)C4)c3)n2)c1 [Compound 723, N-[3-chloro-5-(3-morpholinoazetidin-1-yl)phenyl]-1-(3,5-difluorophenyl)-1,2,4-triazol-3-amine] | 10 to 100 | 100 to 1000
Cc1cc(Nc2ncn(-c3cc(F)cc(F)c3)n2)cc(N2CCOC3(COC3)C2)c1 [Compound 724, 1-(3,5-difluorophenyl)-N-[3-(2,5-dioxa-8-azaspiro[3.5]nonan-8-yl)-5-methyl-phenyl]-1,2,4-triazol-3-amine] | 1 to 10 | 1 to 10
Cc1cc(Nc2ncn(-c3cccc(C(F)F)c3)n2)cc(N2CCC(N3CCOCC3)CC2)c1 [Compound 725, 1-[3-(difluoromethyl)phenyl]-N-[3-methyl-5-(4-morpholino-1-piperidyl)phenyl]-1,2,4-triazol-3-amine] | 10 to 100 | 10 to 100
Fc1cc(F)cc(-n2cnc(Nc3cc(N4CCN(C5COC5)CC4)cc(N4CCN(C5COC5)CC4)n3)n2)c1 [Compound 726, N-[1-(3,5-difluorophenyl)-1,2,4-triazol-3-yl]-4,6-bis[4-(oxetan-3-yl)piperazin-1-yl]pyridin-2-amine] | 1 to 10 | 1 to 10
Cc1cc(Nc2ncn(-c3cc(F)cc(F)c3)n2)cc(N2CC3CC2CO3)c1 (centres unmarked) [Compound 727, 1-(3,5-difluorophenyl)-N-[3-methyl-5-(2-oxa-5-azabicyclo[2.2.1]heptan-5-yl)phenyl]-1,2,4-triazol-3-amine] | 10 to 100 | ≤ 1
Fc1ccc(-n2cnc(Nc3cc(C(F)(F)F)cc(N4CCN(C5COC5)CC4)n3)n2)cc1 [Compound 728, N-[1-(4-fluorophenyl)-1,2,4-triazol-3-yl]-6-[4-(oxetan-3-yl)piperazin-1-yl]-4-(trifluoromethyl)pyridin-2-amine] | 10 to 100 | ≤ 1
COCC1CCN(c2cc(C(F)F)cc(Nc3ncn(-c4cc(F)cc(F)c4)n3)n2)CC1 [Compound 729, 4-(difluoromethyl)-N-[1-(3,5-difluorophenyl)-1,2,4-triazol-3-yl]-6-[4-(methoxymethyl)-1-piperidyl]pyridin-2-amine] | ≤ 1 | 10 to 100
Cc1cc(Nc2ncn(-c3cc(F)cc(F)c3)n2)cc(N2CC(N3CCO[C@@H](C)C3)C2)c1 [Compound 730, 1-(3,5-difluorophenyl)-N-[3-methyl-5-[3-[(2S)-2-methylmorpholin-4-yl]azetidin-1-yl]phenyl]-1,2,4-triazol-3-amine] | 10 to 100 | 10 to 100
Cc1cc(Nc2ncn(-c3cc(F)cc(F)c3)n2)nc(N2CCN(C)CC2)c1 [Compound 731, N-[1-(3,5-difluorophenyl)-1,2,4-triazol-3-yl]-4-methyl-6-(4-methylpiperazin-1-yl)pyridin-2-amine] | 10 to 100 | ≤ 1
Fc1cc(F)cc(-n2cnc(Nc3cc(C(F)F)cc(N4CC(N5CCOCC5)C4)n3)n2)c1 [Compound 732, 4-(difluoromethyl)-N-[1-(3,5-difluorophenyl)-1,2,4-triazol-3-yl]-6-(3-morpholinoazetidin-1-yl)pyridin-2-amine] | 1 to 10 | 1 to 10
Fc1cc(F)cc(-n2cnc(Nc3cc(N4CCN(C5COC5)CC4)cc(Cl)n3)n2)c1 [Compound 733, 6-chloro-N-[1-(3,5-difluorophenyl)-1,2,4-triazol-3-yl]-4-[4-(oxetan-3-yl)piperazin-1-yl]pyridin-2-amine] | 1 to 10 | 1 to 10
CCc1cc(Nc2ncn(-c3cccc(C#N)c3)n2)cc(N2CCN(C3COC3)CC2)c1 [Compound 734, 3-[3-[3-ethyl-5-[4-(oxetan-3-yl)piperazin-1-yl]anilino]-1,2,4-triazol-1-yl]benzonitrile] | 1 to 10 | ≤ 1
COc1ccc(-n2cnc(Nc3cc(C)cc(N4CC(N5CCOCC5)C4)c3)n2)cc1F [Compound 735, 1-(3-fluoro-4-methoxy-phenyl)-N-[3-methyl-5-(3-morpholinoazetidin-1-yl)phenyl]-1,2,4-triazol-3-amine] | 1 to 10 | 1 to 10
CCc1cc(Nc2ncn(-c3cccc(C(F)F)c3)n2)cc(N2CCN(C3COC3)CC2)c1 [Compound 736, 1-[3-(difluoromethyl)phenyl]-N-[3-ethyl-5-[4-(oxetan-3-yl)piperazin-1-yl]phenyl]-1,2,4-triazol-3-amine] | 10 to 100 | ≤ 1

Reference: patent publication US10766869B2, “Triazoles for the treatment of demyelinating dieases” (Vertex Pharmaceuticals Incorporated, priority 2015, dated 2020)
